What was measured:
[1] = tested on: patients with various levels of fasting hypertriglyceridemia; experiment: Two multicenter placebo-controlled AMARYL registration studies: lipid data; assay type: in vivo, human; parameters: Triglycerides % reduction from baseline / Non-HDL Cholesterol Total % reduction from baseline: concentration or dose not given beside the values; Triglycerides Baseline / Triglycerides Endpoint: unit not given beside the values
From the text: There is evidence from the literature that use of sulfonylurea (SU) as initial drug treatment of the type 2 patient with DDL exerts a weaker effect on reduction of hypertriglyceridemia, or on increasing HDL-C, than is seen with insulin, and/or that the effects are less durable. In order to compare the effects of Lantus LANTUS (insulin glargine) on fasting TG and non-HDL-C levels with oral agents from the sulfonylurea class, the glimepiride (Amaryl® AMARYL) database at Aventis was examined.

[2] = tested on: type 2 diabetic patients already treated with other oral antidiabetic drugs; experiment: Study 4014: lipid data, LANTUS versus rosiglitazone; assay type: in vivo, human; parameters: Triglycerides % reduction from baseline / Triglycerides % reduction from baseline, LANTUS-AVANDIA / Non-HDL Cholesterol Total % reduction from baseline: concentration or dose not given beside the values; Triglycerides Baseline / Triglycerides Endpoint: unit not given beside the values
abnormalities of DDL = conditions: in vivo; cited from earlier work
IGT = conditions: statistically significant; cited from earlier work
[3] = after injection; cited from earlier work
[4] = tested on: diabetic patients hospitalized with acute MI; conditions: IV insulin-glucose infusion in-hospital followed by intensive chronic outpatient insulin, versus standard treatment; cited from earlier work

CCC1=C(C)CN(C(=O)NCCc2ccc(S(=O)(=O)NC(=O)N[C@H]3CC[C@H](C)CC3)cc2)C1=O [AMARYL, glimepiride]
HDL Baseline ([1]; TG baseline range 200-500): 38
HDL Endpoint ([1]; TG baseline range 200-500): 39
Non-HDL Cholesterol Total % reduction from baseline ([1]; TG baseline range 200-500): 3%
Non-HDL Cholesterol Total Baseline ([1]; TG baseline range 200-500): 197
Non-HDL Cholesterol Total Endpoint ([1]; TG baseline range 200-500): 191
Triglycerides % reduction from baseline ([1]; TG baseline range 200-500): 12%
Triglycerides Baseline ([1]; TG baseline range 200-500): 299
Triglycerides Endpoint ([1]; TG baseline range 200-500): 265
HDL Baseline ([1]; TG baseline range 300-500): 36
HDL Endpoint ([1]; TG baseline range 300-500): 37
Non-HDL Cholesterol Total % reduction from baseline ([1]; TG baseline range 300-500): 3%
Non-HDL Cholesterol Total Baseline ([1]; TG baseline range 300-500): 203
Non-HDL Cholesterol Total Endpoint ([1]; TG baseline range 300-500): 198
Triglycerides % reduction from baseline ([1]; TG baseline range 300-500): 18%
Triglycerides Baseline ([1]; TG baseline range 300-500): 390
Triglycerides Endpoint ([1]; TG baseline range 300-500): 321
HDL Baseline ([1]; TG baseline range 300-1000): 36
HDL Endpoint ([1]; TG baseline range 300-1000): 37
Non-HDL Cholesterol Total % reduction from baseline ([1]; TG baseline range 300-1000): 5%
Non-HDL Cholesterol Total Baseline ([1]; TG baseline range 300-1000): 209
Non-HDL Cholesterol Total Endpoint ([1]; TG baseline range 300-1000): 198
Triglycerides % reduction from baseline ([1]; TG baseline range 300-1000): 23%
Triglycerides Baseline ([1]; TG baseline range 300-1000): 459
Triglycerides Endpoint ([1]; TG baseline range 300-1000): 350
HDL Baseline ([1]; TG baseline range 500-1000): 37
HDL Endpoint ([1]; TG baseline range 500-1000): 39
Non-HDL Cholesterol Total % reduction from baseline ([1]; TG baseline range 500-1000): 10%
Non-HDL Cholesterol Total Baseline ([1]; TG baseline range 500-1000): 224
Non-HDL Cholesterol Total Endpoint ([1]; TG baseline range 500-1000): 200
Triglycerides % reduction from baseline ([1]; TG baseline range 500-1000): 33%
Triglycerides Baseline ([1]; TG baseline range 500-1000): 662
Triglycerides Endpoint ([1]; TG baseline range 500-1000): 445
LDL Baseline ([1]; TG baseline range All): 142
LDL Endpoint ([1]; TG baseline range All): 140

CN(CCOc1ccc(CC2SC(=O)NC2=O)cc1)c1ccccn1 (stereo not shown) [AVANDIA, rosiglitazone]
HDL Baseline ([2]; TG baseline range 200-500): 38
HDL Endpoint ([2]; TG baseline range 200-500): 40
LDL Baseline ([2]; TG baseline range 200-500): 99
LDL Endpoint ([2]; TG baseline range 200-500): 129
Non-HDL Cholesterol Total Endpoint ([2]; TG baseline range 200-500): 59
Triglycerides % reduction from baseline ([2]; TG baseline range 200-500): 0.1%
Triglycerides Baseline ([2]; TG baseline range 200-500): 294
Triglycerides Endpoint ([2]; TG baseline range 200-500): 291
HDL Baseline ([2]; TG baseline range 300-500): 38
HDL Endpoint ([2]; TG baseline range 300-500): 41
Non-HDL Cholesterol Total % reduction from baseline ([2]; TG baseline range 300-500): −17%
Non-HDL Cholesterol Total Baseline ([2]; TG baseline range 300-500): 177
Non-HDL Cholesterol Total Endpoint ([2]; TG baseline range 300-500): 207
Triglycerides % reduction from baseline ([2]; TG baseline range 300-500): 9%
Triglycerides Baseline ([2]; TG baseline range 300-500): 376
Triglycerides Endpoint ([2]; TG baseline range 300-500): 341
HDL Baseline ([2]; TG baseline range 500-1000): 39
HDL Endpoint ([2]; TG baseline range 500-1000): 38
Non-HDL Cholesterol Total Baseline ([2]; TG baseline range 500-1000): 231
Non-HDL Cholesterol Total Endpoint ([2]; TG baseline range 500-1000): 261
Triglycerides Baseline ([2]; TG baseline range 500-1000): 572
Triglycerides Endpoint ([2]; TG baseline range 500-1000): 649
effect on DDL parameters compared with LANTUS ([2]; in vivo): significantly inferior
effects on the abnormalities of DDL (abnormalities of DDL): almost no effect

CN(C)C(=N)N=C(N)N [Metformin]
reduction in the rate of progression to type 2 DM (IGT): 31%

NPH insulin: a moderate- to long-acting insulin with a pronounced peak in plasma activity
time of pronounced peak in plasma activity / peak effect after injection [3]: 3 to 6 h

insulin: IV insulin-glucose infusion followed by intensive chronic outpatient treatment with insulin (DIGAMI study)
reduction of all-cause mortality [4]: 28%

Reference: patent US8809270B2, “Method for reducing cardiovascular morbidity and mortality in prediaetic patients and patients with type 2 diabetes” (priority 2003, dated 2014)
